This is an account of results in patent US6881741B2 (ViroChem Pharma Inc., priority 2001, dated 2005).

The target of the first test is recombinant HCV NS5B (HCV RNA-dependent RNA polymerase) (Hepatitis C virus genotype 1b, UniProt P26663). Put plainly: biochemical. The note with it: HCV polymerase activity, list of compounds of Example 27; read-out: IC50 (polymerase activity).
recombinant HCV NS5B (HCV RNA-dependent RNA polymerase), sequence (P26663 2420-3010 limits assumed): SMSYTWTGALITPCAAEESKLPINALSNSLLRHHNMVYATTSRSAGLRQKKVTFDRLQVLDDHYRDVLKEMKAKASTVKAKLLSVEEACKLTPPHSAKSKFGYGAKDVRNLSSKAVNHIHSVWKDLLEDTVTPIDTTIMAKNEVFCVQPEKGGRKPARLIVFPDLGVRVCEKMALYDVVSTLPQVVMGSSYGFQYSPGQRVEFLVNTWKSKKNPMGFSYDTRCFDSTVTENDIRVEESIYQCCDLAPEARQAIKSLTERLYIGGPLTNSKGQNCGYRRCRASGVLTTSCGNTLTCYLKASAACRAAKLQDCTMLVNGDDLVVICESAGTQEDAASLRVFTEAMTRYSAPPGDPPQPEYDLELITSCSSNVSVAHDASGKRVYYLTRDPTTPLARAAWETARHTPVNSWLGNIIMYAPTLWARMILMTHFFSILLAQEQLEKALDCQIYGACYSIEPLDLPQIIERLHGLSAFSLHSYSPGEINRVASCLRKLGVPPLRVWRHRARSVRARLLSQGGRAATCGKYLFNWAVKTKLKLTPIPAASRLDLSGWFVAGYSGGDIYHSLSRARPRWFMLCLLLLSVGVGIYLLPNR
Broadly, the IC50 is the concentration needed to halve the response being measured. `Cc1ccc(S(=O)(=O)Nc2cc(-c3ccc(F)cc3)sc2C(N)=O)cc1` [Compound 564, 5-(4-FLUORO-PHENYL)-3-(TOLUENE-4- SULFONYLAMINO)-THIOPHENE-2- CARBOXYLIC ACID AMIDE]: the IC50 lay in the range of 5 to 20 µM.

Take `CC(C)C(=O)N(Cc1ccc(Cl)cc1)c1cc(-c2ccccc2)sc1C(=O)O` [Compound 457, 3-[(4-CHLORO-BENZYL)-ISOBUTYRYL- AMINO]-5-PHENYL-THIOPHENE-2- CARBOXYLIC ACID]: the IC50 fell in the range of 5 to 20 µM.

`CCCC(=O)N(Cc1ccccc1C)c1cc(-c2ccccc2)sc1C(=O)O` [Compound 433, 3-[BUTYRYL-(2-METHYL-BENZYL)- AMINO]-5-PHENYL-THIOPHENE-2- CARBOXYLIC ACID]: the IC50 was 5 to 20 µM.

On to `COCC(=O)N(Cc1ccccc1)c1cc(-c2ccccc2)sc1C(=O)O` [Compound 452, 3-[BENZYL-(2-METHOXY-ACETYL)- AMINO]-5-PHENYL-THIOPHENE-2- CARBOXYLIC ACID], for which the IC50 is below 5 µM.

`CC(C)N(c1cc(-c2ccc(-c3ccc(Cl)cc3)cc2)sc1C(=O)O)C(=O)[C@H]1CC[C@H](C)CC1` [Compound 571, 5-(4′-CHLORO-BIPHENYL-4-YL)-3- [ISOPROPYL-(4-METHYL- CYCLOHEXANECARBONYL)-AMINO]- THIOPHENE-2-CARBOXYLIC ACID]: the IC50 is below 5 µM.

Consider `O=C(O)c1sc(-c2ccccc2)cc1N(Cc1ccccc1)C(=O)C1CCC1` [Compound 489, 3-(BENZYL-CYCLOBUTANECARBONYL- AMINO)-5-PHENYL-THIOPHENE-2- CARBOXYLIC ACID], for which the IC50 is below 5 µM.

As for `CC(=O)N(Cc1cccc(Cl)c1)c1cc(-c2ccccc2)sc1C(=O)O` [Compound 476, 3-[ACETYL-(3-CHLORO-BENZYL)-AMINO]- 5-PHENYL-THIOPHENE-2-CARBOXYLIC ACID], the IC50 was above 20 µM.

As to `O=C(NC1CCC(N(C(=O)c2ccc(Cl)cc2Cl)c2cc(-c3ccccc3)sc2C(=O)O)CC1)OCc1ccccc1` (centres unmarked) [Compound 515, 3-[(4-BENZYLOXYCARBONYLAMINO- CYCLOHEXYL)-(2,4-DICHLORO- BENZOYL)-AMINO]-5-PHENYL- THIOPHENE-2-CARBOXYLIC ACID], the IC50 is below 5 µM.

As to `O=C(O)c1sc(-c2ccccc2)cc1N(Cc1ccc(Cl)cc1)C(=O)C1CC1` [Compound 459, 3-[(4-CHLORO-BENZYL)- CYCLOPROPANECARBONYL-AMINO]-5- PHENYL-THIOPHENE-2-CARBOXYLIC ACID], the IC50 lay within 5 to 20 µM.

Take `CC1CCC(C(=O)N(c2cc(-c3ccc(C(F)(F)F)cc3)sc2C(=O)O)C(C)C)CC1` (centres unmarked) [Compound 575, 3-[ISOPROPYL-(4-METHYL- CYCLOHEXANECARBONYL)-AMINO]-5-(4- TRIFLUOROMETHYL-PHENYL)- THIOPHENE-2-CARBOXYLIC ACID]: the IC50 is below 5 µM.

Regarding `Cc1ccc(S(=O)(=O)Nc2cc(-c3ccc(Cl)cc3)sc2C(N)=O)cc1` [Compound 563, 5-(4-CHLORO-PHENYL)-3-(TOLUENE-4- SULFONYLAMINO)-THIOPHENE-2- CARBOXYLIC ACID AMIDE], the IC50 fell in the range of 5 to 20 µM.

The test is the same for the next values; noted with them: related polymerase activity (Example 27 list); read-out: IC50.
Regarding `O=C(O)c1sc(-c2ccccc2)cc1NS(=O)(=O)c1cccc(Br)c1` [Compound 42, 3-(3-BROMO-BENZENESULFONYLAMINO)-5-PHENYL-THIOPHENE-2-CARBOXYLIC ACID], the IC50 is 5 to 20 µM.

Consider `O=C(O)c1sc(-c2ccccc2)cc1NC(=O)N1CCN(c2ccc(F)cc2)CC1` [Compound 157, 3-{[4-(4-FLUORO-PHENYL)-PIPERAZINE-1-CARBONYL]-AMINO}-5-PHENYL-THIOPHENE-2-CARBOXYLIC ACID], for which the IC50 is above 20 µM.

Turning to `O=C(O)c1sc(-c2ccccc2)cc1NS(=O)(=O)c1cc(Cl)sc1Cl` [Compound 55, 3-(2,5-DICHLORO-THIOPHENE-3-SULFONYLAMINO)-5-PHENYL-THIOPHENE-2-CARBOXYLIC ACID], the IC50 is 5 to 20 µM.

Take `O=C(O)c1sc(-c2ccccc2)cc1NS(=O)(=O)c1ccc(C(F)(F)F)cc1` [Compound 52, 5-PHENYL-3-(4-TRIFLUOROMETHYL-BENZENESULFONYLAMINO)-THIOPHENE-2-CARBOXYLIC ACID]: the IC50 is below 5 µM.

As to `O=C(O)c1cc(S(=O)(=O)Nc2cc(-c3ccccc3)sc2C(=O)O)c(F)cc1Cl` [Compound 221, 3-(5-CARBOXY-4-CHLORO-2-FLUORO-BENZENESULFONYLAMINO)-5-PHENYL-THIOPHENE-2-CARBOXYLIC ACID], the 50% inhibitory concentration (IC50) is above 20 µM.

For `O=C(O)c1sc(-c2ccccc2)cc1NS(=O)(=O)c1ccccc1C(F)(F)F` [Compound 35, 5-PHENYL-3-(2-TRIFLUOROMETHYL-BENZENESULFONYLAMINO)-THIOPHENE-2-CARBOXYLIC ACID], the IC50 was above 20 µM.

Regarding `Cc1ccccc1S(=O)(=O)Nc1cc(-c2ccc(CO)cc2)sc1C(=O)O` [Compound 125, 5-(4-HYDROXYMETHYL-PHENYL)-3-(TOLUENE-2-SULFONYLAMINO)-THIOPHENE-2-CARBOXYLIC ACID], the IC50 is below 5 µM.

On to `C=CCN(C(=O)Cc1ccc(Cl)cc1)c1cc(-c2ccccc2)sc1C(=O)O` [Compound 339, 3-(ALLYL-[2-(4-CHLORO-PHENYL)- ACETYL]-AMINO)-5-PHENYL-THIOPHENE- 2-CARBOXYLIC ACID], for which the IC50 lay in the range of 5 to 20 µM.

As for `Cc1ccccc1C(=O)Nc1cc(-c2ccccc2)sc1C(=O)O` [Compound 96, 3-(2-METHYL-BENZOYLAMINO)-5-PHENYL-THIOPHENE-2-CARBOXYLIC ACID], the IC50 was 5 to 20 µM.

With `Cc1ccc(C(=O)N(c2cc(-c3ccccc3)sc2C(=O)O)C(C)C)c(C)c1` [Compound 262, 3-[(2,4-DIMETHYL-BENZOYL)-ISOPROPYL-AMINO]-5-PHENYL-THIOPHENE-2-CARBOXYLIC ACID], the IC50 is below 5 µM.

On to `Cc1ccccc1S(=O)(=O)Nc1cc(-c2ccc(NS(C)(=O)=O)cc2)sc1C(=O)O` [Compound 369, 5-(4-METHANESULFONYLAMINO- PHENYL)-3- (TOLUENE-2-SULFONYLAMINO)- THIOPHENE- 2-CARBOXYLIC ACID], for which the IC50 fell in the range of 5 to 20 µM.

In the case of `CN(C(=O)c1sc2ccccc2c1Cl)c1cc(-c2ccccc2)sc1C(=O)O` [Compound 256, 3-[(3-CHLORO-BENZO[B]THIOPHENE-2-CARBONYL)-METHYL-AMINO]-5-PHENYL-THIOPHENE-2-CARBOXYLIC ACID], the IC50 lay within 5 to 20 µM.

On to `CN(C(=O)c1ccc(Cl)c(Cl)c1)c1cc(-c2ccccc2)sc1C(=O)O` [Compound 253, 3-[(3,4-DICHLORO-BENZOYL)-METHYL-AMINO]-5-PHENYL-THIOPHENE-2-CARBOXYLIC ACID], for which the IC50 fell in the range of 5 to 20 µM.

For the compound `Cc1ccc(S(=O)(=O)Nc2cc(-c3ccc(C#N)cc3)sc2C(=O)O)c(C)c1` [Compound 288, 5-(4-CYANO-PHENYL)-3-(2,4-DIMETHYL-BENZENESULFONYLAMINO)-THIOPHENE-2-CARBOXYLIC ACID], the IC50 is below 5 µM.

On to `COc1cc(C)ccc1C(=O)N(C)c1cc(-c2ccccc2)sc1C(=O)O` [Compound 205, 3-[(2-METHOXY-4-METHYL-BENZOYL)-METHYL-AMINO]-5-PHENYL-THIOPHENE-2-CARBOXYLIC ACID], for which the IC50 was 5 to 20 µM.

Take `CCOC(=O)c1c(C)[nH]c(C)c1S(=O)(=O)Nc1cc(-c2ccccc2)sc1C(=O)O` [Compound 167, 4-(2-CARBOXY-5-PHENYL-THIOPHEN-3-YLSULFAMOYL)-2,5-DIMETHYL-1H-PYRROLE-3-CARBOXYLIC ACID ETHYL ESTER]: the IC50 fell in the range of 5 to 20 µM.

As for `CN(C(=O)Cc1ccccc1)c1cc(-c2ccccc2)sc1C(=O)O` [Compound 175, 3-(METHYL-PHENYLACETYL-AMINO)-5-PHENYL-THIOPHENE-2-CARBOXYLIC ACID], the IC50 is below 5 µM.

As for `Cc1cc(N(C(=O)c2ccc(Cl)cc2Cl)C(C)C)c(C(=O)O)s1` [Compound 382, 3-[(2,4-DICHLORO-BENZOYL)- ISOPROPYL-AMINO]-5-METHYL- THIOPHENE-2-CARBOXYLIC ACID], the IC50 was below 5 µM.

With `O=C(O)c1sc(-c2ccccc2)cc1NS(=O)(=O)c1ccccc1Br` [Compound 76, 3-(2-BROMO-BENZENESULFONYLAMINO)-5-PHENYL-THIOPHENE-2-CARBOXYLIC ACID], the IC50 was below 5 µM.

Take `O=C(Nc1cc(-c2ccccc2)sc1C(=O)O)c1ccc(F)cc1F` [Compound 77, 3-(2,4-DIFLUORO-BENZOYLAMINO)-5-PHENYL-THIOPHENE-2-CARBOXYLIC ACID]: the IC50 is above 20 µM.

Turning to `Cc1ccccc1S(=O)(=O)Nc1cc(-c2ccc(Cl)c(Cl)c2)sc1C(=O)O` [Compound 85, 5-(3,4-DICHLORO-PHENYL)-3-(TOLUENE-2-SULFONYLAMINO)-THIOPHENE-2-CARBOXYLIC ACID], the IC50 lay in the range of 5 to 20 µM.

Regarding `COc1cccc(CN(C(=O)c2ccc(C)cc2)c2cc(-c3ccccc3)sc2C(=O)O)c1` [Compound 344, 3-[(3-METHOXY-BENZYL)-(4-METHYL- BENZOYL)-AMINO]-5-PHENYL- THIOPHENE-2-CARBOXYLIC ACID], the IC50 is below 5 µM.

Take `CN(C(=O)c1ccccc1Cl)c1cc(-c2ccccc2)sc1C(=O)O` [Compound 95, 3-[(2-CHLORO-BENZOYL)-METHYL-AMINO]-5-PHENYL-THIOPHENE-2-CARBOXYLIC ACID]: the IC50 lay in the range of 5 to 20 µM.

With `Cc1ccc(C)c(S(=O)(=O)Nc2cc(-c3ccccc3)sc2C(=O)O)c1` [Compound 21, 3-(2,5-DIMETHYL-BENZENESULFONYLAMINO)-5-PHENYL-THIOPHENE-2-CARBOXYLIC ACID], the IC50 lay in the range of 5 to 20 µM.

Consider `C=CCN(C(=O)C1CCC1)c1cc(-c2ccccc2)sc1C(=O)O` [Compound 398, 3-(ALLYL-CYCLOBUTANECARBONYL- AMINO)-5-PHENYL-THIOPHENE-2- CARBOXYLIC ACID], for which the IC50 is above 20 µM.

`CC(C)=CCN(C(=O)c1ccc(C)cc1)c1cc(-c2ccccc2)sc1C(=O)O` [Compound 300, 3-[(4-METHYL-BENZOYL)-(3-METHYL- BUT-ENYL)-AMINO]-5-PHENYL- THIOPHENE-2-CARBOXYLIC ACID]: the IC50 was 5 to 20 µM.

For `O=C(O)c1sc(-c2ccccc2)cc1NC(=O)N1CCC2(CC1)C(=O)NCN2c1ccccc1` [Compound 112, 3-[(4-OXO-1-PHENYL-1,3,8-TRIAZA-SPIRO[4,5]DECANE-8-CARBONYL)-AMINO]-5-PHENYL-THIOPHENE-2-CARBOXYLIC ACID], the IC50 is below 5 µM.
